Measured values published in ChEMBL document CHEMBL5136972, “Targeting SARS-CoV-2 Proteases and Polymerase for COVID-19 Treatment: State of the Art and Future Opportunities” (J Med Chem, 2022).

Columns and labels:
[1] = Cmax in CD-1 mouse at 3 mg/kg, sc measured after up to 24 hrs by HPLC-MS/MS analysis; assay type: ADME, organism-based; design: time < 24 hrs, dose 3 mg/kg, route sc; settings: in vivo
[2] = Inhibition of MERS CoV 3CL protease expressed in Escherichia coli BL21-Gold DE3 cells by FRET assay; design: species or system Middle East respiratory syndrome-related coronavirus
[3] = Half life in CD-1 mouse at 3 mg/kg, sc measured after up to 24 hrs by HPLC-MS/MS analysis; assay type: ADME, organism-based; settings: in vivo
SARS-CoV-2 [4] = assay: Antiviral activity against SARS CoV-2 infected in human Calu-3 cells measured after 24 hrs by qRT-PCR analysis; assay type: functional, organism-based; settings: Severe acute respiratory syndrome coronavirus 2, Calu-3, 24 h
[5] = target: Replicase polyprotein 1ab (Severe acute respiratory syndrome coronavirus 2, UniProt P0DTD1); assay: Inhibition of C-terminal 6-His-tagged recombinant SARS CoV-2 3CL protease expressed in Escherichia coli BL21-Gold DE3 cells by FRET assay
[6] = Cytotoxicity against African green monkey Vero E6 cells incubated for 3 hrs by CCK-8 assay; assay type: toxicity, cell-based, Vero C1008; settings: chlorocebus sabaeus
[7] = Cytotoxicity against African green monkey Vero E6 cells by CCK-8 assay; assay type: toxicity, cell-based, Vero C1008; settings: chlorocebus sabaeus
[8] = Inhibition of FIPV 3CL protease using dabcyl-KTSAVLQ/SGFRKME-edans as substrate incubated for 30 mins followed by substrate addition measured after 30 mins by FRET assay; design: species or system Feline infectious peritonitis virus
[9] = Inhibition of TGEV 3CL protease using Dabcyl-KTSAVLQ/SGFRKME-Edans as substrate incubated for 30 mins followed by substrate addition measured after 30 mins by FRET assay; design: species or system Transmissible gastroenteritis virus
[10] = Inhibition of MERS 3CL protease using Dabcyl-KTSAVLQ/SGFRKME-Edans as substrate incubated for 30 mins followed by substrate addition measured after 30 mins by FRET assay; design: species or system Middle East respiratory syndrome-related coronavirus
[11] = Clearance in CD-1 mouse at 5 to 20 mg/kg, ip measured after up to 24 hrs by LC-MS/MS analysis; assay type: ADME, organism-based; settings: in vivo, dose 5-20 mg/kg
SARS-CoV-2 [12] = assay: Antiviral activity against SARS CoV-2 infected in African green monkey Vero cells assessed as inhibition of plaque formation by viral plaque assay; assay type: functional, organism-based; settings: Severe acute respiratory syndrome coronavirus 2, Vero
[13] = Oral bioavailability in CD1 mouse at 150 mg/kg administered as single dose by LC-MS/MS analysis; assay type: ADME, organism-based; settings: in vivo
[14] = Cytotoxicity against African green monkey Vero E6 cells infected with SARS CoV-2 clinical isolate 2019-nCoV/USA-WA1/2020 incubated for 48 hrs by CellTiter-Glo assay; assay type: toxicity, cell-based, Vero C1008; settings: chlorocebus sabaeus
[15] = Oral bioavailability in CD1 mouse at 50 mg/kg administered as single dose by LC-MS/MS analysis; assay type: ADME, organism-based; settings: in vivo
[16] = Half life in CD1 mouse at 500 mg/kg, po administered as single dose by LC-MS/MS analysis; assay type: ADME, organism-based; settings: in vivo
[17] = Half life in CD1 mouse at 50 mg/kg, po administered as single dose by LC-MS/MS analysis; assay type: ADME, organism-based; settings: in vivo
SARS-CoV-2 [18] = assay: Antiviral activity against SARS CoV-2 clinical isolate 2019-nCoV/USA-WA1/2020 infected in human Calu-3 cells measured after 72 hrs by plaque assay; assay type: functional, organism-based; settings: Severe acute respiratory syndrome coronavirus 2, 2019-nCoV/USA-WA1/2020, Calu-3, 72 h
SARS-CoV-2 [19] = assay: Antiviral activity against SARS CoV-2 clinical isolate 2019-nCoV/USA-WA1/2020 infected in African green monkey Vero E6 cells incubated for 48 hrs by CellTiter-Glo assay; assay type: functional, organism-based; settings: Severe acute respiratory syndrome coronavirus 2, 2019-nCoV/USA-WA1/2020, Vero C1008, 48 h
[20] = Drug distribution in CD1 mouse liver at 150 to 500 mg/kg, po measured after 8 hrs by LC-MS/MS analysis; assay type: ADME, organism-based; settings: in vivo, dose 150-500 mg/kg
[21] = system: Middle East respiratory syndrome-related coronavirus; assay: Antiviral activity against […] infected in HAE cells incubated for 48 hrs by qRT-PCR analysis; assay type: functional, organism-based
[22] = Half life in CD1 mouse at 150 mg/kg, po administered as single dose by LC-MS/MS analysis; assay type: ADME, organism-based; settings: in vivo
[23] = Oral bioavailability in CD1 mouse at 500 mg/kg administered as single dose by LC-MS/MS analysis; assay type: ADME, organism-based; settings: in vivo
SARS-CoV = assay: Antiviral activity against […] infected in HAE cells incubated for 48 hrs by qRT-PCR analysis; assay type: functional, organism-based
SARS-CoV-2 [24] = assay: Antiviral activity against SARS CoV-2 assessed as inhibition of virus-induced cytopathic effect by neutral red uptake assay; assay type: functional, organism-based; settings: Severe acute respiratory syndrome coronavirus 2
[25] = Half life in mouse at 2 mg/kg, IM; assay type: ADME, organism-based; settings: in vivo
[26] = Half life in Sprague-Dawley […] measured up to 24 hrs; assay type: ADME, organism-based

## CC(C)(C)OC(=O)Nc1cccn([C@@H](CC2CC2)C(=O)N[C@@H](C[C@@H]2CCNC2=O)C(=O)C(=O)NCc2ccccc2)c1=O
[1]
  Cmax: 0.126 µg/mL
[2]
  IC50: 0.58 µM
[3]
  half-life: < 2 h

## Nc1cccn([C@@H](CC2CC2)C(=O)N[C@@H](C[C@@H]2CCNC2=O)C(=O)C(=O)NCc2ccccc2)c1=O
SARS-CoV-2 [4]
  EC50: > 40 µM
[5]
  IC50: 1.34 µM

## O=c1cc(-c2ccccc2)oc2cc(O)c(O)c(O)c12 [BAICALEIN]
[6]
  CC50 at 3 h: > 200 µM

## CC(C)C[C@H](NC(=O)OCc1ccccc1)C(=O)N[C@@H](C[C@@H]1CCNC1=O)C(O)S(=O)(=O)O (stereo partly drawn)
[7]
  CC50: > 100 µM
[8]
  IC50: 0.72 µM
[9]
  IC50: 0.82 µM
[10]
  IC50: 1.56 µM

## O=C[C@H](C[C@@H]1CCNC1=O)NC(=O)[C@H](Cc1cccc(F)c1)NC(=O)c1cc2ccccc2[nH]1
[11]
  CL/F: 1.26 L/h/kg
[7]
  CC50: > 100 µM
SARS-CoV-2 [12]
  EC50: 0.72 µM

## O=c1nc(NO)ccn1[C@@H]1O[C@H](CO)[C@@H](O)[C@H]1O [N-HYDROXYCYTIDINE]
[13]
  bioavailability: 43%
[14]
  CC50 at 48 h: > 10 µM
[15]
  bioavailability: 56%
[16]
  half-life: 2.7 h
[17]
  half-life: 5.2 h
SARS-CoV-2 [18]
  EC50: 0.08 µM
SARS-CoV-2 [19]
  EC50: 0.3 µM
[20]
  Drug uptake: 10 nmol/g
[21]
  EC50: 0.024 µM
[22]
  half-life: 3.2 h
[23]
  bioavailability: 36%
SARS-CoV
  EC50: 0.14 µM

## Nc1ncnc2c([C@@H]3N[C@H](CO)[C@@H](O)[C@H]3O)c[nH]c12
SARS-CoV-2 [24]
  EC50: 57.7 µM
[25]
  half-life: < 5 min
[26]
  half-life: 6.2 h
